Earlier results in patent US20060073539A1 (priority 2001, published 2006).

Tested on: human hepatocyte and neuroblastoma cells
Conditions: cited from earlier work

| SMILES | effect on cell metabolism |
| --- | --- |
| CCOP(=O)(OCC)Oc1ccc([N+](=O)[O-])cc1 [paraoxon] | opposite effects |
| CCOP(=S)(OCC)Oc1ccc([N+](=O)[O-])cc1 [parathion] | opposite effects |
